Experimental data reported in PubChem BioAssay AID1918994 (Molecular Pharmacology Branch, DTP, NCI, 2023).
pIC50: −log10 of the molar value.

Test system: 292921-168-R-J2-PDC complex spheroid growth
Experiment: Anticancer human tumor 292921-168-R-J2-PDC patient-derived pancreatic carcinoma cell line growth inhibition [AhR]
Conditions: for pIC50: curve of first compound; for viability, T/C: stronger effect = lower value
Procedure, shortened: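 Agents were dosed in half-log steps down from roughly clinical Cmax, or from 10 microM where Cmax was unknown, alone and with AhR antagonists. Read-out: percent test/control growth of tumor spheroids containing HUVEC and MSC stromal cells.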

[1] = second compound 0.1 µM, first compound 0.0316 µM
[2] = second compound 0.1 µM, first compound 0.1 µM
[3] = second compound 0.1 µM, first compound 0.316 µM
[4] = second compound 0.1 µM, first compound 1 µM
[5] = second compound 0.1 µM, first compound 3.16 µM
[6] = second compound 0.1 µM, first compound 10 µM
[7] = second compound 0.316 µM, first compound 0.0316 µM
[8] = second compound 0.316 µM, first compound 0.1 µM
[9] = second compound 0.316 µM, first compound 0.316 µM
[10] = second compound 0.316 µM, first compound 1 µM
[11] = second compound 0.316 µM, first compound 3.16 µM
[12] = second compound 0.316 µM, first compound 10 µM
[13] = second compound 1 µM, first compound 0.0316 µM
[14] = second compound 1 µM, first compound 0.1 µM
[15] = second compound 1 µM, first compound 0.316 µM
[16] = second compound 1 µM, first compound 1 µM
[17] = second compound 1 µM, first compound 3.16 µM
[18] = second compound 1 µM, first compound 10 µM
[19] = second compound 3.16 µM, first compound 0.0316 µM
[20] = second compound 3.16 µM, first compound 0.1 µM
[21] = second compound 3.16 µM, first compound 0.316 µM
[22] = second compound 3.16 µM, first compound 1 µM
[23] = second compound 3.16 µM, first compound 3.16 µM
[24] = second compound 3.16 µM, first compound 10 µM
[25] = second compound 10 µM, first compound 0.0316 µM
[26] = second compound 10 µM, first compound 0.1 µM
[27] = second compound 10 µM, first compound 0.316 µM
[28] = second compound 10 µM, first compound 1 µM
[29] = second compound 10 µM, first compound 3.16 µM
[30] = second compound 10 µM, first compound 10 µM
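Note: spheroids exposed to compounds for seven days after three days of growth.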

## CC(C)CC(NC(=O)C(Cc1ccccc1)NC(=O)c1cnccn1)B(O)O (stereo not given) + Cc1cncc(-c2nc(NCCc3c[nH]c4ccccc34)c3ncn(C(C)C)c3n2)c1
Second compound 0.1 µM
  pIC50: 8.01
Second compound 0.316 µM
  pIC50: 8.01
Second compound 1 µM
  pIC50: 8.04
Second compound 3.16 µM
  pIC50: 8.17
Second compound 10 µM
  pIC50: > 9.02
Second compound 0.1 µM, first compound 0.000949 µM
  viability, T/C: 92.8%
Second compound 0.1 µM, first compound 0.003 µM
  viability, T/C: 109%
Second compound 0.1 µM, first compound 0.00949 µM
  viability, T/C: 51.3%
Second compound 0.1 µM, first compound 0.03 µM
  viability, T/C: 3.12%
Second compound 0.1 µM, first compound 0.0949 µM
  viability, T/C: 0.7%
Second compound 0.1 µM, first compound 0.3 µM
  viability, T/C: 0.59%
Second compound 0.316 µM, first compound 0.000949 µM
  viability, T/C: 89.7%
Second compound 0.316 µM, first compound 0.003 µM
  viability, T/C: 99.3%
Second compound 0.316 µM, first compound 0.00949 µM
  viability, T/C: 51.5%
Second compound 0.316 µM, first compound 0.03 µM
  viability, T/C: 3.84%
Second compound 0.316 µM, first compound 0.0949 µM
  viability, T/C: 0.68%
Second compound 0.316 µM, first compound 0.3 µM
  viability, T/C: 0.47%
Second compound 1 µM, first compound 0.000949 µM
  viability, T/C: 82.3%
Second compound 1 µM, first compound 0.003 µM
  viability, T/C: 95.5%
Second compound 1 µM, first compound 0.00949 µM
  viability, T/C: 48.7%
Second compound 1 µM, first compound 0.03 µM
  viability, T/C: 3.35%
Second compound 1 µM, first compound 0.0949 µM
  viability, T/C: 0.56%
Second compound 1 µM, first compound 0.3 µM
  viability, T/C: 0.95%
Second compound 3.16 µM, first compound 0.000949 µM
  viability, T/C: 62.3%
Second compound 3.16 µM, first compound 0.003 µM
  viability, T/C: 77%
Second compound 3.16 µM, first compound 0.00949 µM
  viability, T/C: 41.6%
Second compound 3.16 µM, first compound 0.03 µM
  viability, T/C: 1.9%
Second compound 3.16 µM, first compound 0.0949 µM
  viability, T/C: 0.89%
Second compound 3.16 µM, first compound 0.3 µM
  viability, T/C: 1.05%
Second compound 10 µM, first compound 0.000949 µM
  viability, T/C: 43.5%
Second compound 10 µM, first compound 0.003 µM
  viability, T/C: 53.7%
Second compound 10 µM, first compound 0.00949 µM
  viability, T/C: 19.6%
Second compound 10 µM, first compound 0.03 µM
  viability, T/C: 0.58%
Second compound 10 µM, first compound 0.0949 µM
  viability, T/C: 0.63%
Second compound 10 µM, first compound 0.3 µM
  viability, T/C: 0.51%

## CC1(C)CCC(CN2CCN(c3ccc(C(=O)NS(=O)(=O)c4ccc(NCC5CCOCC5)c([N+](=O)[O-])c4)c(Oc4cnc5[nH]ccc5c4)c3)CC2)=C(c2ccc(Cl)cc2)C1 + CC(CO)NC(=O)c1cc(-c2ccc(Cl)cc2)nn(-c2cnn(C)c2)c1=O
Second compound 0.1 µM
  pIC50: 5.21
Second compound 0.316 µM
  pIC50: 5.20
Second compound 1 µM
  pIC50: 5.17
Second compound 3.16 µM
  pIC50: 5.24
Second compound 10 µM
  pIC50: 5.37
[1]
  viability, T/C: 103%
[2]
  viability, T/C: 101%
[3]
  viability, T/C: 108%
[4]
  viability, T/C: 103%
[5]
  viability, T/C: 91.1%
[6]
  viability, T/C: 20.7%
[7]
  viability, T/C: 105%
[8]
  viability, T/C: 98.7%
[9]
  viability, T/C: 106%
[10]
  viability, T/C: 95.6%
[11]
  viability, T/C: 97.5%
[12]
  viability, T/C: 18.8%
[13]
  viability, T/C: 96.7%
[14]
  viability, T/C: 94.9%
[15]
  viability, T/C: 102%
[16]
  viability, T/C: 98.2%
[17]
  viability, T/C: 101%
[18]
  viability, T/C: 25.6%
[19]
  viability, T/C: 92.9%
[20]
  viability, T/C: 87.4%
[21]
  viability, T/C: 93.3%
[22]
  viability, T/C: 96.7%
[23]
  viability, T/C: 83.8%
[24]
  viability, T/C: 18.5%
[25]
  viability, T/C: 67.8%
[26]
  viability, T/C: 70.7%
[27]
  viability, T/C: 71.6%
[28]
  viability, T/C: 72.5%
[29]
  viability, T/C: 62.2%
[30]
  viability, T/C: 16%

## Nc1ccccc1NC(=O)c1ccc(CNC(=O)OCc2cccnc2)cc1 + Cc1ccccc1N=Nc1ccc(NC(=O)c2ccnn2C)c(C)c1
Second compound 0.1 µM
  pIC50: 6.27
Second compound 0.316 µM
  pIC50: 6.21
Second compound 1 µM
  pIC50: 6.56
Second compound 3.16 µM
  pIC50: 6.64
Second compound 10 µM
  pIC50: > 7.50
[1]
  viability, T/C: 66.5%
[2]
  viability, T/C: 65.1%
[3]
  viability, T/C: 57%
[4]
  viability, T/C: 40.9%
[5]
  viability, T/C: 27.3%
[6]
  viability, T/C: 12%
[7]
  viability, T/C: 66.8%
[8]
  viability, T/C: 65.8%
[9]
  viability, T/C: 58.9%
[10]
  viability, T/C: 42.8%
[11]
  viability, T/C: 26.1%
[12]
  viability, T/C: 12.8%
[13]
  viability, T/C: 63.9%
[14]
  viability, T/C: 54.5%
[15]
  viability, T/C: 52.6%
[16]
  viability, T/C: 35.9%
[17]
  viability, T/C: 26.5%
[18]
  viability, T/C: 12.3%
[19]
  viability, T/C: 54%
[20]
  viability, T/C: 55%
[21]
  viability, T/C: 50.7%
[22]
  viability, T/C: 33.4%
[23]
  viability, T/C: 23.7%
[24]
  viability, T/C: 10.3%
[25]
  viability, T/C: 48.9%
[26]
  viability, T/C: 42.7%
[27]
  viability, T/C: 34.7%
[28]
  viability, T/C: 32.3%
[29]
  viability, T/C: 17.7%
[30]
  viability, T/C: 8.67%
